For experiment [1], the system named is subcutaneous xenograft tumor of human glioblastoma LN-18. Put plainly: LN-18 subcutaneous xenograft, combined with radiotherapy. The class given is in vivo, NOG mice. As to conditions: compound 5 mg/kg intragastric qd × 5 + IR 1 Gy, day 17. On the procedure: 9 Efficacy Test of the Compounds of the Present Disclosure Combined with Radiotherapy on Inhibiting the Growth of Subcutaneous Xenograft Tumor of Human Glioblastoma LN-18
9.1 Experimental Animals: NOG Mice, SPF, Female, 18 to 22 g.
LN-18 tumor cells, DMEM medium:fetal bovine serum=95%:5%, accompanied by adding 100 U/mL penicillin and 100 μg/mL streptomycin, 37° C., 5% CO2.
LN18 tumor cells resuspended in serum-free DMEM medium were inoculated subcutaneously in the right costal region of experimental animals at 1.5*10^7/0.15 mL, and the animals were grouped when the tumor grew to 100 to 150 mm^3. Radiotherapy was performed 1 h after administration of compounds.
Tumor volume: The tumor volume was measured twice a week with a vernier caliper, and the long diameter and short diameter of tumor were measured. The tumor volume was calculated as follows: tumor volume (TV)=0.5×long diameter×short diameter^2. Tumor growth inhibitory rate (TGI %) was calculated according to the tumor volume. TVXn represents the mean tumor volume on day n of the treatment group, TVX0 represents the mean tumor volume on day 0 of the treatment group, TVMn represents the mean tumor volume on day n of the control group, and TVM0 represents the mean tumor volume on day 0 of the control group.

Experiment [2] deals with ATM-phosphorylated KAP1. Put plainly: Intracellular ATM-phosphorylated KAP1 level, ICW assay in MCF7 cells. It counts as cell-based, Human. Conditions: for IC50: MCF7 cells, 2 h compound, 10 Gy irradiation, further 1 h, read-out: pKAP1 IC50; for inhibitory effect on ATM KAP phosphorylation, in words: cellular level, compared with AZD1390 as positive control. On the procedure:
4 Inhibition on Intracellular ATM-Phosphorylated KAP1 Level by the Compounds of the Present Disclosure: ICW Assay
• Cell: Human breast cancer cell line MCF7 • Materials and reagents:
4.2 Experimental Procedures
• (1) Cell inoculation • MCF7 cells were inoculated on a 384-well plate, 10000 cells/well (25 μL/well), and cultured overnight at 37° C. with 5% CO2. • (2) Activity detection • 1) The compound was formulated into a 100 mM solution with DMSO and then sequentially diluted with a gradient of 1:3 to yield a total of 10 concentration gradients, wherein the maximum concentration was 100 μM. • 2) 25 nL of each of the compound solutions with gradient concentrations prepared in step 1) was added to each well of the cell plate (Corning #356663) by using I-DOT One, resulting in a final concentration of 100 nM (maximum dose). • 3) The cell plate containing compound was incubated at 37° C. with 5% CO2 for 2 h. After 2 h, the cell plate was irradiated with a dose of 10 Gy, and then further incubated for 1 h. • 4) 25 μL of 8% paraformaldehyde was added to each well, followed by incubating at room temperature for 20 min. • 5) The 8% paraformaldehyde was discarded, followed by adding 0.1% TrintonX-100 and incubating at room temperature for 30 min. • 6) Odessey blocking buffer was added at 50 μL/well, followed by incubating at room temperature for 1.5 h. • 7) The Odessey blocking buffer was discarded, and then a primary antibody (Phospho-KAP1, 1:2000 dilution) was added, followed by incubating overnight at 4° C. • 8) The primary antibody was removed, followed by washing with PBS+0.1% Tween 20 for 5 times. • 9) DNA dye DRAQ5 coated with a second antibody (IRDye 800CW Goat anti-Rabbit, 1:4000 dilution) was added, followed by incubating at room temperature for 1 h. • 10) The second antibody was removed, followed by washing with PBS+0.1% Tween 20 for 5 times. • 11) PBS+0.1% Tween 20 was sucked off with Odyssey. • (3) Data analysis • 1) the relative ratio of Channel 800/Channel 700 for each well was detected. • 2) % of KAP1 phosphorylation was calculated according to the following formula:
% of KAP1 phosphorylation=[(Ratiocmpd−(Ratio)Positive)/((Ratio)Vehicle−(Ratio)Positive]*100 • (Ratio)Positive: the mean value of the test values of each positive control well in the test cell plate; • (Ratio)Vehicle: the mean value of the test values of each negative control well in the test cell plate. • 3) the IC50 of each compound was calculated and the dose-effect curve was plotted: % of KAP1 phosphorylation and log of compound's concentration were fit by using Graphpad 8.0 so as to calculate the IC50.
[formula] • X: log of compound's concentration • Y: % of KAP1 phosphorylation

The target in experiment [3] is ATM (Homo sapiens (Human), UniProt Q13315). The experiment is described as follows: Caliper mobility shift assay for ATM. It counts as biochemical. As to conditions: read-out: IC50 of inhibitory activity on ATM kinase. On the procedure: 1.2 Determination of the Inhibitory Activities of Compounds on ATM: Caliper Mobility Shift Assay for ATM
To a 96-well plate, 98 μL of DMSO and 2 μL of the 10 mM stock solution were added and mixed evenly so that the concentration of the solution was 200 μM.
Based on the inhibitory rates of the compound at different concentrations, IC50 was calculated according to the formula: Y=Bottom+(Top−Bottom)/(1+(IC50/X)^HillSlope).

In experiment [4] the test system is Human glioblastoma cell line LN-18. The experiment is described as follows: LN18 cell proliferation combined with radiotherapy (CTG assay).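 As to IC50: readout is CTG luminescence proliferation not KAP1 phosphorylation.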 Conditions: for IC50: LN18 cells, 1 Gy irradiation 1 h after compound, 6 days, CTG; for inhibitory effect on LN18 cell proliferation, in words: combined with radiotherapy, compared with AZD1390 as positive control. It counts as cell-based. The method, then:
5 Test of the Inhibitory Activities of the Compounds of the Present Disclosure Combined with Radiotherapy on LN18 Cell Proliferation
• Cell: Human glioblastoma cell line LN-18
5.2 Experimental Procedures
• (1) Cell inoculation • 1) The cell culture fluid was preheated at 37° C. • 2) A complete culture medium of LN18 cells was prepared, at a ratio of DMEM medium:FBS=95:5 (V/V). • 3) Cells were digested with trypsin, collected to serve as a cell suspension, and counted, the cell suspension was then added into a 96-well plate at 1500 cells/well and 100 μL of cell fluid/well, and three parallel wells were set. • 4) After inoculated in the plate, the cells were cultured overnight under the condition of 37° C. and 5% CO2. • (2) Compound addition and incubation • 1) AZD1390 and tested compounds, respectively, were sequentially diluted 5 times with DMSO, starting from the concentration of 10 mM and yielding the concentrations of 10, 2, 0.4, 0.08, 0.016, 0.0032, 0.00064, 0.000128, and 0.0000256 mM in turn. The compound solutions at the above concentrations were diluted 5000 times with the complete culture medium. The final 2× concentrations were in order 2000, 400, 80, 16, 3.2, 0.64, 0.128, 0.0256, and 0.00512 nM. The vehicle control was 0.02% DMSO culture fluid. • 2) A complete culture medium containing 100 μL of the compound solution was added to each well, and the final concentrations of the compounds in the wells were in order 1000, 200, 40, 8, 1.6, 0.32, 0.064, 0.0128, and 0.00256 nM. The 0.01% DMSO culture fluid was contained in the vehicle control well. After incubated with compound for 1 h, the cells were irradiated at a dose of 1 Gy. • 3) After irradiation, the plate was put into an incubator and incubated under the condition of 37° C. and 5% CO2 for 6 days. Then detection was performed by adopting CTG assay (100 μL of liquid from each well was sucked out and discarded, and 50 μL of CTG reagent was added to each well, and incubated at room temperature for 30 min, and the luminescence intensity was detected). • (3) Data analysis • 1) The Luminescence signal (RLU) of each well was detected. • 2) Proliferation inhibitory activity was calculated according to the formula: % inhibitory activity=RLUtreatment/RLUAvg(Vehicle)*100. 5.3 the Inhibitory Activities of Compounds of the Present Disclosure Combined with Radiotherapy on LN18 Cell Proliferation

[5] abbreviates: Homo sapiens, light or radiation study.
Where [6] appears, read: Homo sapiens, LN-18, light or radiation study.

Each structure is given as a SMILES string. Where two headings read alike, the source gives them in different places. Marks after values point to notes of the source that are not given here.

Chain of ATM (Q13315 whole entry): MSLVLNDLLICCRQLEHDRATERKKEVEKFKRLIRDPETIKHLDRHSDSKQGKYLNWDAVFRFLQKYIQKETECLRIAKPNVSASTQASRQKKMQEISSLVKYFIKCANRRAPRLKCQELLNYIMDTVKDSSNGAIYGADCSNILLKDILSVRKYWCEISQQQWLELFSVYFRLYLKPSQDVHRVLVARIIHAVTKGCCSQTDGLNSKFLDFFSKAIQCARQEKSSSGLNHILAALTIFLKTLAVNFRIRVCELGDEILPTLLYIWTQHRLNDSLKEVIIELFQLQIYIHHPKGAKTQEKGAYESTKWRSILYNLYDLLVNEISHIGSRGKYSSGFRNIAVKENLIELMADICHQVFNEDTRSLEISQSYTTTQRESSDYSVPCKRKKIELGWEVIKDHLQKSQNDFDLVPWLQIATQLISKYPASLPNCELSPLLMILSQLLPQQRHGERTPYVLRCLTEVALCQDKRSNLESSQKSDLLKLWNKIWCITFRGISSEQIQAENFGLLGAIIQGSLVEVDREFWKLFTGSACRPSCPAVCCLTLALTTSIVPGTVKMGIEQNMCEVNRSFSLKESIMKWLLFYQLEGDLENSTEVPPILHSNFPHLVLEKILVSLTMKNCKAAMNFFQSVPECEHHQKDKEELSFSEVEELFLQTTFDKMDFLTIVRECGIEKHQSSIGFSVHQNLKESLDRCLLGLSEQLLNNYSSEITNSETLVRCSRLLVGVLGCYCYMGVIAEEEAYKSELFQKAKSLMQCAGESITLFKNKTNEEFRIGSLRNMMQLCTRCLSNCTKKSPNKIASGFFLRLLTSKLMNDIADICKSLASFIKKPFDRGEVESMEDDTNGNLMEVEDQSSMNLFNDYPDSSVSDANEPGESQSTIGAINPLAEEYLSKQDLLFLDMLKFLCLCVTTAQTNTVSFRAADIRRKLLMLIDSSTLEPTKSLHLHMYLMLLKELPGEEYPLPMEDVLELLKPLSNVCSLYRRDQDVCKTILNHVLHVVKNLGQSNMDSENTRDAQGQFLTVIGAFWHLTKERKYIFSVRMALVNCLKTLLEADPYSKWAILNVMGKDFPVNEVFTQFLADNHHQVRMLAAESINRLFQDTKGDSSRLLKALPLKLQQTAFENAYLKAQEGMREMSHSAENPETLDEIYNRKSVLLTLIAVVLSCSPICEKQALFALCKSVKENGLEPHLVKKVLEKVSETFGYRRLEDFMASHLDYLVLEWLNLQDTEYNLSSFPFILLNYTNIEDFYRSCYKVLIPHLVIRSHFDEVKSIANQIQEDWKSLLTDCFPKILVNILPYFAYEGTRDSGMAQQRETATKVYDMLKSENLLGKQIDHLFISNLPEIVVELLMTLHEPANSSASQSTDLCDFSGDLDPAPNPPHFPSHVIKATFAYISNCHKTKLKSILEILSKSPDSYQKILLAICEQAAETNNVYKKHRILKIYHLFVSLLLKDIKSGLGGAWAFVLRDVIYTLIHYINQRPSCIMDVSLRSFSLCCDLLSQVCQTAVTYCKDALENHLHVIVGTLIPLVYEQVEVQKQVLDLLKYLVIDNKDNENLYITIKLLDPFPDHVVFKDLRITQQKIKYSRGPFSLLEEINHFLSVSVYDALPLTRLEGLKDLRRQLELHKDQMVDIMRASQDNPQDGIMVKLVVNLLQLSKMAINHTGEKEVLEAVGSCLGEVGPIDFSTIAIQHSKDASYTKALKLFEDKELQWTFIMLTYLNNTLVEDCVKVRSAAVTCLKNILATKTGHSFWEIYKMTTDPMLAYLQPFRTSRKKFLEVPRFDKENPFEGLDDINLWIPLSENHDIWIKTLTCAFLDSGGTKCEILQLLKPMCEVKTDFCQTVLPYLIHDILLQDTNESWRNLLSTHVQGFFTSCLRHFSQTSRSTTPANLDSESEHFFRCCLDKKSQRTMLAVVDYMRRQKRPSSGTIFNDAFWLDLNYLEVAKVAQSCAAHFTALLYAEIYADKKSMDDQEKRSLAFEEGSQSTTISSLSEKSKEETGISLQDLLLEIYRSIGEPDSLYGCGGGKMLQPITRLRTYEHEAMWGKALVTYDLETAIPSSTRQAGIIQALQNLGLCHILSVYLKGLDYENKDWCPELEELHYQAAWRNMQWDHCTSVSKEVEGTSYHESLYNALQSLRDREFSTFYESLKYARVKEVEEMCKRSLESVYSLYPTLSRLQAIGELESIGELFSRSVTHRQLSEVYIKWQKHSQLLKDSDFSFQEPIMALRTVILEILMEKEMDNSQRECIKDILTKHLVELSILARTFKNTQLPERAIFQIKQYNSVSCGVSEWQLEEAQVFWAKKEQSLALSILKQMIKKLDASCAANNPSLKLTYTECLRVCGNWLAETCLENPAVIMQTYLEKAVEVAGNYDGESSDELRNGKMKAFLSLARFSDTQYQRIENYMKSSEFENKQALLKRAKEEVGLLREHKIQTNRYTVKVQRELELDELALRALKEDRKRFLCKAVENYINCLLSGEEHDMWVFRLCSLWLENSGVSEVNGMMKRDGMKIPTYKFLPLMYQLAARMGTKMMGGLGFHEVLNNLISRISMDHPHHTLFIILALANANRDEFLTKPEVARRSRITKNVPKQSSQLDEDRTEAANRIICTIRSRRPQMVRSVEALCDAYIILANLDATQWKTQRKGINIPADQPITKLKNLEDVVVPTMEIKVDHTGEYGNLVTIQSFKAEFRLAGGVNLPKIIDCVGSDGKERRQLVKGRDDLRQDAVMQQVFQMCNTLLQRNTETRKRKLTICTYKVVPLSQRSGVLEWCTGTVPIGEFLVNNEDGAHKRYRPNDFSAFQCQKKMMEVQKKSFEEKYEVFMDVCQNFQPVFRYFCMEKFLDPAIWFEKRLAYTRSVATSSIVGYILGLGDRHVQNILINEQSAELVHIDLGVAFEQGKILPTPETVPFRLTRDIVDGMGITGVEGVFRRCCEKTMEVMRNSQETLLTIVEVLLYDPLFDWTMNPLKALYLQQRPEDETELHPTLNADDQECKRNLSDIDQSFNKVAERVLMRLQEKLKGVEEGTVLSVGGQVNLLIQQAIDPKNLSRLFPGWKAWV

Regarding `Cn1c(=O)n2c3c4c(c(-c5ccc(OCCCN6CCCCC6)nc5)ccc4ncc31)OCC21CC1` [Example A-68, 2-methyl-7-(6-(3-(piperidin-1-yl)propoxy)pyridin-3-yl)-2,9-dihydro-1H-spiro[8-oxa-2,4,10a-triazanaphtho[2,1,8-cde]azulene-10,1′-cyclopropan]-1-one], in experiment [1], the “D 17 TGI” value came out at 83.9%. Also, the “D 17 TV (MEAN ± SD)” value in experiment [1] was 285 ± 61***^# mm^3. The results for the IC50 in experiment [2] (setting [5]), in experiment [3] and in experiment [4] (setting [6]) were 900 pM, 370 pM and 6830 pM, respectively.
`C[C@H]1COc2c(-c3ccc(OCCCN4CCC5(CC4)COC5)nc3)ccc3ncc4c(c23)n1c(=O)n4C` [Example A-184, (S)-7-(6-(3-(2-oxa-7-azaspiro[3.5]nonan-7-yl)propoxy)pyridin-3-yl)-2,10-dimethyl-9,10-dihydro-8-oxa-2,4,10a-triazanaphtho[2,1,8-cde]azulen-1(2H)-one]: the 50% inhibitory concentration (IC50) came to 330 pM in experiment [2] (setting [5]), 250 pM in experiment [3] and 3840 pM in experiment [4] (setting [6]). For the same compound, the “inhibitory effect on ATM KAP phosphorylation, in words” value in experiment [2] is on record as “higher than that of AZD1390”.
In the case of `CC[C@H]1CNc2c(-c3ccc(OCCCN4CCCCC4)nc3)ccc3ncc4c(c23)n1c(=O)n4C` [Example A-203, (S)-10-ethyl-2-methyl-7-(6-(3-(piperidin-1-yl)propoxy)pyridin-3-yl)-2,8,9,10-tetrahydro-1H-2,4,8,10a-tetraazanaphtho[2,1,8-cde]azulen-1(2H)-one], the “D 17 TGI” value in experiment [1] came to 71.4%. The “D 17 TV (MEAN ± SD)” value in experiment [1] is 396 ± 121*** mm^3. The half-maximal inhibitory concentration (IC50) in experiment [2] was found to be 830 pM; in experiment [3], 540 pM; in experiment [4] it was 5660 pM.
As for `C[C@H]1CNc2c(-c3ccc(OCCCN4CCC(C)(C)CC4)nc3)ccc3ncc4c(c23)n1c(=O)n4C` [Example A-212, (S)-7-(6-(3-(4,4-dimethylpiperidin-1-yl)propoxy)pyridin-3-yl)-2,10-dimethyl-2,8,9,10-tetrahydro-1H-2,4,8,10a-tetraazanaphtho[2,1,8-cde]azulen-1(2H)-one], in experiment [2], the 50% inhibitory concentration (IC50) is 370 pM and the “inhibitory effect on ATM KAP phosphorylation, in words” value was “higher than that of AZD1390”. For the same compound, in experiment [3], the IC50 came to 370 pM. In experiment [4], the IC50 was found to be 1480 pM and the “inhibitory effect on LN18 cell proliferation, in words” value is “higher than that of AZD1390”.
As for `C[C@H]1COc2c(-c3ccc(OCCCN4CCCCC4)nc3)ccc3ncc4c(c23)n1c(=O)n4C` [Example A-177, (S)-2,10-dimethyl-7-(6-(3-(piperidin-1-yl)propoxy)pyridin-3-yl)-9,10-dihydro-8-oxa-2,4,10a-triazanaphtho[2,1,8-cde]azulen-1(2H)-one], the “D 17 TGI” value in experiment [1] was 77.9%. Further, the “D 17 TV (MEAN ± SD)” value in experiment [1] was 338 ± 67***^ mm^3. Besides, the IC50 in experiment [2] (setting [5]) was determined as 610 pM; in experiment [3], 250 pM; in experiment [4] (setting [6]) it was 5220 pM.
Regarding `C[C@H]1CNc2c(-c3ccc(OCCCN4CCCCC4)nc3)ccc3ncc4c(c23)n1c(=O)n4C` [Example A-198, (S)-2,10-dimethyl-7-(6-(3-(piperidin-1-yl)propoxy)pyridin-3-yl)-2,8,9,10-tetrahydro-1H-2,4,8,10a-tetraazanaphtho[2,1,8-cde]azulen-1(2H)-one], in experiment [1], the “D 17 TGI” value turned out to be 79.3%. The “D 17 TV (MEAN ± SD)” value in experiment [1] is 326 ± 77***^# mm^3. Moreover, the IC50 in experiment [2] was found to be 640 pM; in experiment [3], 440 pM; in experiment [4], 5930 pM.
As for `C[C@H]1COc2c(-c3ccc(OCCCN4CCC5(CC4)CC5)nc3)ccc3ncc4c(c23)n1c(=O)n4C` [Example A-183, (S)-7-(6-(3-(6-azaspiro[2.5]octan-6-yl)propoxy)pyridin-3-yl)-2,10-dimethyl-9,10-dihydro-8-oxa-2,4,10a-triazanaphtho[2,1,8-cde]azulen-1(2H)-one], the “D 17 TGI” value in experiment [1] turned out to be 85.7%. In addition, the “D 17 TV (MEAN ± SD)” value in experiment [1] is 269 ± 89***^# mm^3. Further, the IC50 in experiment [2] (setting [5]) came out at 220 pM; in experiment [3] it was 230 pM; in experiment [4] (setting [6]) it was 1390 pM. Further, in experiment [2], the “inhibitory effect on ATM KAP phosphorylation, in words” value is recorded as “higher than that of AZD1390”. In experiment [4], the “inhibitory effect on LN18 cell proliferation, in words” value was “higher than that of AZD1390”.

A word on the IC50: it is the midpoint of a concentration-inhibition curve.

These data come from patent publication US20240294545A1 (CSPC Zhongqi Pharmaceutical Technology (Shijiazhuang) Co., …, priority 2020, published 2024).
